US9724312B2, “Agent for the prevention, improvement or treatment of retinal disease” (ROHTO PHARMACEUTICAL CO., LTD., priority 2012, dated 2017)

Assays:
PC12 = assay: Protective effect against ischemic cell death induced by hypoxia and low glucose (Cell Titer-Glo cell viability); type: cell-based, rat; settings: 30 μM, 2 h pre-incubation, then low glucose/zero percent O2 8 h, FIG. 1, n=10, Tukey-Kramer
Source text: The progress of visual impairment in glaucoma is associated with retinal ganglion cell (RGC) death due to blood flow failure occurring near the optic nerve (Folia Pharmacol. Jpn. 128, 255-258 (2006)). With the use of PC12, which is a typical neural cell line established from rat adrenal […] pheochromocytoma and used also as a model cell for the functional evaluation of RGC (J Neurosci Res. 2000 May 15; 60(4): 495-503), the cytoprotective effect of GGA against ischemic cell death induced by hypoxia and low glucose was evaluated.
Test samples were prepared as follows. The test substances were four types of GGAs that contain the all-trans form and the 5Z-mono-cis form at a weight ratio of 10:0, 8:2, 6:4, and 0:10, respectively. […]
After 8 hours of incubation, 100 μL of an equivalent mixture of a cell viability detection reagent Cell Titer-Glo (Promega) and PBS was added to each well and the luminescence produced by the reaction with ATP in living cells was measured with a luminometer (GloMax; Promega). The cell viability was calculated from the measured luminescence by the following formula and the cytoprotective effect of GGA against oxidative stress by hydrogen peroxide was examined. Cell viability(%)=100×[(luminescence of base- or GGA-treated group)/(luminescence of non-treated group)]

[1] = tested on: rat models with glaucoma induced by NMDA; assay: Protective effect for retinal ganglion cells against nerve damage by NMDA (thickness of inner plexiform layer); type: in vivo; settings: once a day
Source text: In recent years the glutamate analogue NMDA (N-methyl-D-aspartate) has been widely reported to be one of causative agents of neurodegenerative diseases including Alzheimer's disease. In the ophthalmic field, NMDA is considered to be involved in optic nerve damage in glaucoma (Brain Research Bulletin, 81 (2010) 349-358). Accordingly, in this experiment rat models with glaucoma induced by NMDA were used to evaluate the neuroprotective effect of GGA.
To Sprague-Dawley (SD) rats, the all-trans form, the 5Z-mono-cis form and teprenone were separately pre-administered by oral administration (Test Example 1), intravitreal administration (Test Example 2) or ocular instillation administration (Test Example 3) and 5 μL of NMDA was administered into the vitreous body to induce nerve damage. For Test Example 2, a marketed therapeutic eye drop for glaucoma, AIPHAGAN (trade name), was intravitreally administered as a positive control once a day for five days. For each of Test Examples, a base not containing GGA or AIPHAGAN was administered as a control in the same manner as described above.
The dosage and regimen of Test Examples 1 to 3 are shown in Table 1 and the constitution of the base used in each tests are shown in Table 2.
Three days after administration of NMDA, the eyeballs were harvested, fixed with half Karnovsky's fixative for 24 hours, embedded in paraffin, thin sectioned and stained with hematoxylin-eosin (HE) to prepare histopathological sections. The histological sections were observed under an optical microscope and the thickness (μm) of the inner plexiform layer (IPL) of the retina was measured. From the thickness of the inner plexiform layer (IPL) of the retina, the neuroprotective effects of the test preparations were evaluated.

[2] = tested on: retinal detachment-induced animal; settings: intraperitoneal administration; cited from earlier work
glaucoma rat model = settings: intraperitoneal administration; cited from earlier work
[3] = tested on: mouse with visual cell damage induced by light irradiation; settings: oral administration; cited from earlier work
[4] = tested on: mouse with retinal injury induced by ischemia; settings: oral administration; cited from earlier work
[5] = tested on: multiple sclerosis mouse model; settings: oral administration; cited from earlier work
[6] = Test Example 1: oral 800 mg/kg, 2 days, NMDA 4 mM, FIG. 6, Dunnett

## CC(=O)CC/C=C(/C)CC/C=C(\C)CC/C=C(\C)CCC=C(C)C [5Z-mono-cis form, (5Z,9E,13E)-6,10,14,18-tetramethyl-5,9,13,17-nonadecatetrae n-2-one]
PC12
  cytoprotective effect compared with GGA 6:4: significantly higher cytoprotective effects
[1]; [6]
  neuroprotective effect against nerve damage by NMDA compared with base (IPL thickness): significant neuroprotective effects
[1]; Test Example 2: intravitreal 0.05% w/v, 5 days, NMDA 40 mM, FIG. 7, Tukey-Kramer
  neuroprotective effect against nerve damage by NMDA compared with base (IPL thickness): significant neuroprotective effects

## teprenone
[1]; [6]
  neuroprotective effect against nerve damage by NMDA compared with base (IPL thickness): did not show a significant neuroprotective effect
[2]
  apoptosis of visual cells: reduced the apoptosis of visual cells significantly
  expression of heat shock protein 70: induced the expression of heat shock protein 70
Glaucoma rat model
  expression of heat shock protein 72: induced the expression of heat shock protein 72
  retinal ganglion cell death and optic nerve damage: reduced retinal ganglion cell death and thereby ameliorated optic nerve damage
[3]
  induction of thioredoxin and heat shock protein 72 in the retinal pigment epithelium: induced thioredoxin and heat shock protein 72 in the retinal pigment epithelium
[4]
  number of surviving retinal neurons: significantly increased the number of surviving retinal neurons
[5]
  cell loss in the ganglion: prevented cell loss in the ganglion
  number of degenerating axons in the optic nerve: reduced the number of degenerating axons in the optic nerve
  visual function: improved the visual function
